Reference: ChEMBL document CHEMBL1157738, “Simocyclinone D8 turns on against Gram-negative bacteria in a clinical setting” (2010)

Key:
Escherichia coli [1] = experiment: Antibacterial activity against Escherichia coli isolate 24 assessed as residual bacterial survival at 50 mg/L after 24 hrs by twofold serial dilution method; format: functional; conditions: isolate 24, 24 h
Escherichia coli [2] = experiment: Antibacterial activity against Escherichia coli isolate 9 expressing qnr B19 gene, GyrA D87G mutant assessed as residual bacterial survival at 50 mg/L after 24 hrs by twofold serial dilution method; format: functional; conditions: isolate 9, 24 h
Escherichia coli [3] = experiment: Antibacterial activity against Escherichia coli isolate 191 expressing qnr S1 gene assessed as residual bacterial survival at 50 mg/L after 24 hrs by twofold serial dilution method; format: functional; conditions: isolate 191, 24 h
Escherichia coli [4] = experiment: Antibacterial activity against Escherichia coli isolate 50 expressing qnr B19 gene assessed as residual bacterial survival at 50 mg/L after 24 hrs by twofold serial dilution method; format: functional; conditions: isolate 50, 24 h
Escherichia coli [5] = experiment: Antibacterial activity against Escherichia coli isolate 47 expressing qnr B19 gene assessed as residual bacterial survival at 50 mg/L after 24 hrs by twofold serial dilution method; format: functional; conditions: isolate 47, 24 h
Klebsiella pneumoniae [6] = experiment: Antibacterial activity against Klebsiella pneumoniae isolate 173 assessed as residual bacterial survival at 50 mg/L after 24 hrs by twofold serial dilution method; format: functional; conditions: isolate 173, 24 h
Klebsiella pneumoniae [7] = experiment: Antibacterial activity against Klebsiella pneumoniae isolate 91 assessed as residual bacterial survival at 50 mg/L after 24 hrs by twofold serial dilution method; format: functional; conditions: isolate 91, 24 h
Klebsiella pneumoniae [8] = experiment: Antibacterial activity against Klebsiella pneumoniae isolate 134 assessed as residual bacterial survival at 50 mg/L after 24 hrs by twofold serial dilution method; format: functional; conditions: isolate 134, 24 h
Klebsiella pneumoniae [9] = experiment: Antibacterial activity against Klebsiella pneumoniae isolate 92 assessed as residual bacterial survival at 50 mg/L after 24 hrs by twofold serial dilution method; format: functional; conditions: isolate 92, 24 h
Klebsiella pneumoniae [10] = experiment: Antibacterial activity against Klebsiella pneumoniae isolate 370 expressing qnr B19 gene, GyrA D87G mutant assessed as residual bacterial survival at 50 mg/L after 24 hrs by twofold serial dilution method; format: functional; conditions: isolate 370, 24 h
Klebsiella pneumoniae [11] = experiment: Antibacterial activity against Klebsiella pneumoniae isolate 328 expressing qnr B19 gene, GyrA D87G mutant assessed as residual bacterial survival at 50 mg/L after 24 hrs by twofold serial dilution method; format: functional; conditions: isolate 328, 24 h
Klebsiella pneumoniae [12] = experiment: Antibacterial activity against Klebsiella pneumoniae isolate 16 expressing qnr B19 gene, GyrA D87G mutant assessed as residual bacterial survival at 50 mg/L after 24 hrs by twofold serial dilution method; format: functional; conditions: isolate 16, 24 h
Klebsiella pneumoniae [13] = experiment: Antibacterial activity against Klebsiella pneumoniae isolate 204 expressing qnr B19 gene assessed as residual bacterial survival at 50 mg/L after 24 hrs by twofold serial dilution method; format: functional; conditions: isolate 204, 24 h
Klebsiella pneumoniae [14] = experiment: Antibacterial activity against Klebsiella pneumoniae isolate 172 expressing qnr B19 gene, GyrA D87G mutant assessed as residual bacterial survival at 50 mg/L after 24 hrs by twofold serial dilution method; format: functional; conditions: isolate 172, 24 h
Klebsiella pneumoniae [15] = experiment: Antibacterial activity against Klebsiella pneumoniae isolate 110 expressing qnr B19 gene, GyrA D87G mutant assessed as residual bacterial survival at 50 mg/L after 24 hrs by twofold serial dilution method; format: functional; conditions: isolate 110, 24 h
Klebsiella pneumoniae [16] = experiment: Antibacterial activity against Klebsiella pneumoniae isolate 97 expressing qnr B19 gene assessed as residual bacterial survival at 50 mg/L after 24 hrs by twofold serial dilution method; format: functional; conditions: isolate 97, 24 h
Klebsiella pneumoniae [17] = experiment: Antibacterial activity against Klebsiella pneumoniae isolate 5 expressing qnr B19 gene, GyrA D87G mutant assessed as residual bacterial survival at 50 mg/L after 24 hrs by twofold serial dilution method; format: functional; conditions: isolate 5, 24 h
Klebsiella pneumoniae [18] = experiment: Antimicrobial activity against Klebsiella pneumoniae isolate 97 assessed drug uptake; format: functional, organism-based
Klebsiella pneumoniae [19] = experiment: Antimicrobial activity against Klebsiella pneumoniae isolate 92 assessed as drug uptake; format: functional, organism-based
Escherichia coli [20] = experiment: Antibacterial activity against Escherichia coli isolate 50 assessed as drug uptake; format: functional, organism-based
Escherichia coli [21] = experiment: Antibacterial activity against Escherichia coli isolate 24 assessed as drug uptake; format: functional, organism-based
Escherichia coli [22] = experiment: Antibacterial activity against Escherichia coli Top10 assessed as drug uptake; format: functional, organism-based
Klebsiella pneumoniae [23] = experiment: Antibacterial activity against Klebsiella pneumoniae isolate 97 assessed as drug uptake relative to total amount drug treated; format: functional, organism-based
Klebsiella pneumoniae [24] = experiment: Antibacterial activity against Klebsiella pneumoniae isolate 92 assessed as drug uptake relative to total amount drug treated; format: functional, organism-based
Escherichia coli [25] = experiment: Antibacterial activity against Escherichia coli isolate 50 assessed as drug uptake relative to total amount drug treated; format: functional, organism-based
Escherichia coli [26] = experiment: Antibacterial activity against Escherichia coli isolate 24 assessed as drug uptake relative to total amount drug treated; format: functional, organism-based
Klebsiella pneumoniae [27] = experiment: Antibacterial activity against Klebsiella pneumoniae isolate 204 expressing qnr B19 gene after 24 hrs by twofold serial dilution method; format: functional
Escherichia coli [28] = experiment: Antibacterial activity against Escherichia coli Top10 assessed as drug uptake relative to total amount drug treated; format: functional, organism-based
Escherichia coli [29] = experiment: Antibacterial activity against Escherichia coli isolate 32 after 24 hrs by twofold serial dilution method; format: functional
Escherichia coli [30] = experiment: Antibacterial activity against Escherichia coli isolate 21 after 24 hrs by twofold serial dilution method; format: functional
Escherichia coli [31] = experiment: Antibacterial activity against Escherichia coli isolate 13 after 24 hrs by twofold serial dilution method; format: functional

## CC(=O)O[C@@H]1[C@@H](C)O[C@@H](c2ccc3c(c2O)[C@@H](O)[C@]24O[C@@]2(C3=O)[C@@]2(O)C(=O)C=C(C)C[C@@]2(O)C[C@@H]4O)C[C@H]1OC(=O)/C=C/C=C/C=C/C=C/C(=O)Nc1c(O)c2ccc(O)c(Cl)c2oc1=O [SIMOCYCLINONE D8]
Escherichia coli [1]
  survival at 50 µg/mL: 21%
Escherichia coli [2]
  survival at 50 µg/mL: > 90%
Escherichia coli [3]
  survival at 50 µg/mL: 56%
Escherichia coli [4]
  survival at 50 µg/mL: 41%
Escherichia coli [5]
  survival at 50 µg/mL: 44%
Klebsiella pneumoniae [6]
  survival at 50 µg/mL: 83%
Klebsiella pneumoniae [7]
  survival at 50 µg/mL: > 90%
Klebsiella pneumoniae [8]
  survival at 50 µg/mL: 51%
Klebsiella pneumoniae [9]
  survival at 50 µg/mL: 77%
Klebsiella pneumoniae [10]
  survival at 50 µg/mL: > 90%
Klebsiella pneumoniae [11]
  survival at 50 µg/mL: > 90%
Klebsiella pneumoniae [12]
  survival at 50 µg/mL: > 90%
Klebsiella pneumoniae [13]
  survival at 50 µg/mL: > 90%
Klebsiella pneumoniae [14]
  survival at 50 µg/mL: > 90%
Klebsiella pneumoniae [15]
  survival at 50 µg/mL: > 90%
Klebsiella pneumoniae [16]
  survival at 50 µg/mL: 68%
Klebsiella pneumoniae [17]
  survival at 50 µg/mL: > 90%
Klebsiella pneumoniae [18]
  Drug uptake: 40 pmol
Klebsiella pneumoniae [19]
  Drug uptake: 60 pmol
Escherichia coli [20]
  Drug uptake: 180 pmol
Escherichia coli [21]
  Drug uptake: 260 pmol
Escherichia coli [22]
  Drug uptake: 80 pmol
Klebsiella pneumoniae [23]
  Drug uptake: 1.3%
Klebsiella pneumoniae [24]
  Drug uptake: 1.96%
Escherichia coli [25]
  Drug uptake: 5.87%
Escherichia coli [26]
  Drug uptake: 7.53%
Klebsiella pneumoniae [27]
  MIC50: >100%
Escherichia coli [28]
  Drug uptake: 2.61%
Escherichia coli [29]
  MIC50: > 100 mg/L
Escherichia coli [30]
  MIC50: > 100 mg/L
Escherichia coli [31]
  MIC50: > 100 mg/L
